For data set [1], the target named is T1, Coagulation factor X (Homo sapiens, UniProt P00742). The data set can be described thus: Inhibition of human F10a by fluorescence assay.
Another data set deals with Plasma. Nature of the data set: Anticoagulant activity in human plasma assessed as drug level causing 1.5 times prolongation of prothrombin time. Type of data set: functional.
In the next data set the target is Albumin (Homo sapiens, UniProt P02768). Nature of the data set: Binding affinity to human serum albumin. Type of data set: ADME. As to conditions: isolated protein.
Sequence of Albumin (P02768 whole entry): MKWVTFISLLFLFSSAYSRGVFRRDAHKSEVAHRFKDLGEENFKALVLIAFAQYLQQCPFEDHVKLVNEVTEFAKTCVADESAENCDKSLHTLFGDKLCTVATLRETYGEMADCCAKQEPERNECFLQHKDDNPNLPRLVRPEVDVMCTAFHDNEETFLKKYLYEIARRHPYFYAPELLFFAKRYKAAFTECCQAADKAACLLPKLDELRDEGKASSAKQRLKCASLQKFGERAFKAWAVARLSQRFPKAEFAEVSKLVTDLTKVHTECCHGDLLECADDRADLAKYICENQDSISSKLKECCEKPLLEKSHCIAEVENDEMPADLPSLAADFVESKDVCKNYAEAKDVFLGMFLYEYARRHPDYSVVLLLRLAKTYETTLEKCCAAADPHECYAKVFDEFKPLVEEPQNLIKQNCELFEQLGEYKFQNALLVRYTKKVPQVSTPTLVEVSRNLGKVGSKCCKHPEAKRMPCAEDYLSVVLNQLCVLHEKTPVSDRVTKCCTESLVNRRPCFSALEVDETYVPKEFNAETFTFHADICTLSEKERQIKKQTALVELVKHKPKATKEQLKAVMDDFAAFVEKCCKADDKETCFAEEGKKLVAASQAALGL
Data set [2] in a line: Half life in Sprague-Dawley rat. Type of data set: ADME, organism-based. To be noted: in vivo.
Data set [3] in a line: Plasma clearance in Sprague-Dawley rat. The data set is classed as ADME, organism-based.
Data set [4] in a line: Volume of distribution at steady state in Sprague-Dawley rat. Type of data set: ADME, organism-based. As to conditions: in vivo, read-out: Vdss.
Data set [5] is described as follows: Oral bioavailability in Sprague-Dawley rat. The data set is classed as ADME, organism-based. To be noted: in vivo.
The target in data set [6] is T1, Coagulation factor X. Nature of the data set: Inhibition of human F10a by chromogenic assay.

Each structure is given as a SMILES string.

T1 sequence (P00742 41-179 limits assumed): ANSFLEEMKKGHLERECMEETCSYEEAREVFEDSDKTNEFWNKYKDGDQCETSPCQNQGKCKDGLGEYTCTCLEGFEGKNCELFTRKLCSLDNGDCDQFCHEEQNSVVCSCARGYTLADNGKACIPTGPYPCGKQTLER
T1 sequence (P00742 235-488 limits assumed): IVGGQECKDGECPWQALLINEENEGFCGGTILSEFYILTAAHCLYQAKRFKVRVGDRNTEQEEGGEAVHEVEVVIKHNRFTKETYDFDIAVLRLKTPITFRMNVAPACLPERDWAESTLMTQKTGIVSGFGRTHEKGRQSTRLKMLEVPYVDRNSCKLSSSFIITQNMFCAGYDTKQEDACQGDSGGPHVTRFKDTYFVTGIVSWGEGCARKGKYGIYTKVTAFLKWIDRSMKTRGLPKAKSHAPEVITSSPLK

`O=C1C(NS(=O)(=O)c2ccc3cc(Cl)ccc3c2)CCN1c1ccc(-c2ccoc2)cc1F` (stereo not given): the affinity at Coagulation factor X [1], expressed as Ki, was 74.6 nM. Also, the Activity in the data set on Plasma is over 100 µM.

For `CS(=O)(=O)c1ccccc1-c1ccc(N2CCC(NS(=O)(=O)/C=C/c3ccc(Cl)s3)C2=O)c(F)c1` (stereo not given), the Activity on Albumin was found to be 97.6%.

Regarding `NS(=O)(=O)c1ccccc1-c1ccc(N2CCC(NS(=O)(=O)/C=C/c3ccc(Cl)s3)C2=O)nc1` (stereo not given), the Activity at Albumin is given as 98%.

Regarding `N#Cc1ncccc1-c1ccc(N2CCC(NS(=O)(=O)c3ccc4cc(Cl)ccc4c3)C2=O)c(F)c1` (stereo not given), the affinity on Coagulation factor X [1], expressed as Ki, was 0.7 nM. Further, the Activity in the data set on Plasma was determined as 64.3 µM.

`O=C1C(NS(=O)(=O)c2ccc3cc(Cl)ccc3c2)CCN1c1ccc(-c2ccncc2)cc1F` (stereo not given): on Coagulation factor X [1], affinity was put at a Ki of 8.9 nM. Besides, the Activity in the data set with Plasma stood at 92.9 µM.

As for `CS(=O)(=O)c1ccccc1-c1ccc(N2CCC(NS(=O)(=O)c3cc4nc(Cl)ccc4s3)C2=O)c(F)c1` (stereo not given), the Ki – broadly, the dissociation constant of the complex between target and ligand, obtained from inhibition or displacement – on Coagulation factor X [1] is 2 nM. Further, in the data set with Plasma, the Activity is over 100 µM.

In the case of `CS(=O)(=O)c1ccccc1-c1ccc(N2CCC(NS(=O)(=O)/C=C/c3ccc(Cl)s3)C2=O)nc1` (stereo not given), on Albumin, the Activity is 97.6%. Besides, the half-life (as a rule, the time in which the quantity being followed falls by half) in data set [2] is 36 min. Also, the clearance (commonly the volume of plasma or blood freed of the substance per unit of time) in data set [3] amounted to 1.2 L/h/kg. The Vd in data set [4] came to 0.7 L/kg. Also, the bioavailability (in general, dose-corrected exposure relative to a reference, in per cent) in data set [5] was found to be 29%.

As to `CS(=O)(=O)Nc1ccccc1-c1ccc(N2CCC(NS(=O)(=O)/C=C/c3ccc(Cl)s3)C2=O)nc1` (stereo not given), the Activity worked out at 58.4 µM in the data set on Plasma and 98.2% on Albumin. The compound further returned a Ki on Coagulation factor X [6] of 14 nM.

`CN(C)S(=O)(=O)c1ccccc1-c1ccc(N2CCC(NS(=O)(=O)/C=C/c3ccc(Cl)s3)C2=O)nc1` (stereo not given): on Coagulation factor X [1], the Ki was 0.4 nM. The Activity with Plasma was found to be 65.1 µM.

`CN(C)C(=O)c1ccccc1-c1ccc(N2CCC(NS(=O)(=O)/C=C/c3ccc(Cl)s3)C2=O)nc1` (stereo not given) came in with a Ki on Coagulation factor X [1] of 11.8 nM. Besides, in the data set with Plasma, the Activity turned out to be 78.6 µM.

On Coagulation factor X [1], `O=C1C(NS(=O)(=O)/C=C/c2ccc(Cl)s2)CCN1c1ccc(-c2ccccc2C(F)(F)F)cn1` (stereo not given) displayed a Ki of 6 nM. Also, in the data set on Plasma, the Activity was over 100 µM.

On to `CN(c1ccccc1-c1ccc(N2CCC(NS(=O)(=O)/C=C/c3ccc(Cl)s3)C2=O)nc1)S(C)(=O)=O` (stereo not given), for which, at Coagulation factor X [1], affinity was put at a Ki of 9.1 nM. Further, the Activity in the data set on Plasma was over 100 µM.

On to `CC(C)(C)c1ccccc1-c1ccc(N2CCC(NS(=O)(=O)/C=C/c3ccc(Cl)s3)C2=O)nc1` (stereo not given), for which the Ki at Coagulation factor X [6] amounted to 2330 nM.

`O=C1C(NS(=O)(=O)c2ccc3cc(Cl)ccc3c2)CCN1c1ccc(-c2cccnc2)cc1F` (stereo not given) registered an inhibitory constant (Ki) on Coagulation factor X [1] of 6.3 nM. In the data set with Plasma, the Activity was over 100 µM.

In turn, `CS(=O)(=O)c1ccccc1-c1ccc(N2CCC(NS(=O)(=O)c3ccc4cc(Cl)ccc4c3)C2=O)c(F)c1` (stereo not given) registered an Activity on Albumin of 98.8%. This compound also gave a half-life in data set [2] of 54 min. In data set [3], the clearance stood at 1.2 L/h/kg. The Vd in data set [4] was 1.1 L/kg. The same compound came in with a bioavailability in data set [5] of 10%.

Turning to `O=C1C(NS(=O)(=O)c2ccc3cc(Cl)ccc3c2)CCN1c1ccc(-n2ccnc2)cc1F` (stereo not given), the inhibition constant Ki on Coagulation factor X [1] turned out to be 4.4 nM. The Activity in the data set with Plasma was over 100 µM.

`CS(=O)(=O)c1ccccc1-c1ccc(N2CCC(NS(=O)(=O)/C=C/c3ccc(Cl)cc3)C2=O)c(F)c1` (stereo not given) yielded an inhibitory constant (Ki) at Coagulation factor X [1] of under 0.4 nM. Further, the Activity in the data set with Plasma is 30 µM. The compound also showed a half-life in data set [2] of 48 min. The clearance in data set [3] was determined as 0.552 L/h/kg. Also, in data set [4], the Vd turned out to be 0.5 L/kg. The compound further came in with a bioavailability in data set [5] of 41%.

On Coagulation factor X [1], `N#Cc1ccccc1-c1ccc(N2CCC(NS(=O)(=O)/C=C/c3ccc(Cl)s3)C2=O)nc1` (stereo not given) gave a Ki of 1.8 nM. Also, the Activity with Plasma turned out to be 73.7 µM.

On Coagulation factor X [1], `CC(C)Oc1ccccc1-c1ccc(N2CCC(NS(=O)(=O)/C=C/c3ccc(Cl)s3)C2=O)nc1` (stereo not given) displayed a Ki of 180 nM. In addition, in the data set on Plasma, the Activity is over 100 µM.

`CS(=O)(=O)c1ccccc1-c1ccc(N2CCC(NS(=O)(=O)c3cc4cc(Cl)ccc4o3)C2=O)c(F)c1` (stereo not given): the affinity at Coagulation factor X [1], expressed as Ki, was 6.2 nM. For the same compound, in the data set with Plasma, the Activity was over 100 µM.

`CNS(=O)(=O)c1ccccc1-c1ccc(N2CCC(NS(=O)(=O)/C=C/c3ccc(Cl)s3)C2=O)nc1` (stereo not given) yielded an inhibition constant (Ki) at Coagulation factor X [1] of under 0.3 nM. In addition, the Activity in the data set on Plasma was 25 µM.

On Coagulation factor X [1], `Cn1ccnc1-c1ccc(N2CCC(NS(=O)(=O)c3ccc4cc(Cl)ccc4c3)C2=O)c(F)c1` (stereo not given) had a Ki of 1.1 nM. Besides, the Activity in the data set on Plasma is 54.5 µM.

As to `O=C1C(NS(=O)(=O)c2ccc3cc(Cl)ccc3c2)CCN1c1ccc(-n2cccn2)cc1F` (stereo not given), the inhibition constant Ki at Coagulation factor X [1] amounted to 2.7 nM. Also, the Activity with Plasma is over 100 µM.

With `Cn1cnc(-c2ccc(N3CCC(NS(=O)(=O)c4ccc5cc(Cl)ccc5c4)C3=O)c(F)c2)c1` (stereo not given), at Coagulation factor X [1], the inhibition constant Ki is 15.5 nM. Further, the Activity in the data set with Plasma is over 100 µM.

With `O=C1C(NS(=O)(=O)c2ccc3cc(Cl)ccc3c2)CCN1c1ccc(-c2ccccc2)cc1F` (stereo not given), on Coagulation factor X [1], affinity was put at a Ki of 215 nM. Also, the Activity in the data set on Plasma was over 100 µM.

Compound `CS(=O)(=O)c1ccccc1-c1ccc(N2CCC(NS(=O)(=O)c3cc4ccc(Cl)cc4o3)C2=O)c(F)c1` (stereo not given) showed a Ki at Coagulation factor X [1] of 1.1 nM. Also, the Activity is over 100 µM with Plasma and 99.6% at Albumin.

`CS(=O)(=O)c1ccccc1-c1ccc(N2CCC(NS(=O)(=O)/C=C/c3cc4ccc(Cl)cc4s3)C2=O)c(F)c1` (stereo not given) registered a Ki at Coagulation factor X [1] of 0.1 nM. Also, the Activity with Plasma was 28.7 µM.

On to `O=C1C(NS(=O)(=O)c2ccc3cc(Cl)ccc3c2)CCN1c1ccc(-c2ccccc2)cn1` (stereo not given), for which the inhibitory constant (Ki) at Coagulation factor X [1] worked out at 80 nM. The Activity in the data set on Plasma is over 100 µM.

For the origin of these results see ChEMBL document CHEMBL1140797, “Structure and property based design of factor Xa inhibitors: pyrrolidin-2-ones with biaryl P4 motifs” (Bioorg Med Chem Lett, 2008).
